According to patent US20150150261A1, “METHODS FOR APPLYING DIFORMYLUREA TO CROPS FOR GREATER PLANT PRODUCTIVITY” (Stoller Enterprises, Inc., priority 2013, published 2015):
Entries after “also recorded” stand apart in the source; their conditions may differ.

Assays:
Assay type in all cases: in vivo
field corn = test: Field corn yield, foliar DFU at V4 along with Round-Up herbicide (Table 5); set-up: Yield rep1 / Yield rep2 / Yield rep3 / Yield rep4: unit not given here; conditions: for Yield Bu/acre: control 209
Description: Table 5 below illustrates the effect of foliar application of DFU applied at V4 (4th leaf stage of crop growth) at either the rate of ½ pt/acre along with the herbicide Round-Up™ herbicides on field corn. Both the control and the treatments also had 0.9 lb of ammonium sulfate applied along with the herbicide and di-formylurea (DFU). The field corn was planted in southern Texas on Mar. 3, 2012, at a population density of 35,000 plants per acre. […] The large difference was in the harvestable yields of the di-formyl urea treated plants over the control which received the herbicide only.

corn crop = test: Corn crop yield with DFU combined with nitrogen fertilizer; conditions: DFU combined with nitrogen fertilizer to the soil vs nitrogen fertilizer alone
Description: Enhanced tissue development in DFU treated corn plants is illustrated by the experiment illustrated in FIG. 15.

corn plant [1] = test: Internodal stalk volume of corn plants (Table 1)
Description: It has also been discovered that DFU treatment of corn plants increases the inter-nodal volume of corn plants. Table 1 below confirms that discovery where intermodal stalk volumes of untreated corn crop plants was calculated to be 311.71 cc per plant whereas the inter-nodal stalk volumes of the DFU-treated corn plant was 355.47, an increase of 14% over the control plant.

corn seedlings [2] = test: Guttation on corn seedling leaves (FIG. 4); conditions: as a function of DFU amounts
Description: FIG. 4 illustrates the results of increased guttation on seedling leaves as a function of DFU amounts.

corn plant [3] = test: Soil moisture around feeder roots of corn plants (FIGS. 2, 3); conditions: DFU-treated (FIG. 3) vs untreated (FIG. 2) corn plant
Description: FIG. 2 is a photograph of a root structure showing dry soil around the roots of a corn plant that has not been treated with DFU; FIG. 3 is a photograph of a root structure showing moist soil around the roots of a corn plant (grown under the same conditions as that of FIG. 2) treated with DFU; It has also been discovered that applying DFU to crop plants causes enhancement of crop plant cellular water and soil moisture around the feeder roots. Compare the feeder root system of FIG. 2 of a plant that has had no DFU applied to it with the feeder root system of FIG. 3 of a plant that has DFU applied to it.

corn plants [4] = test: Survival of corn plants in a flooded field (FIGS. 5-13); conditions: corn field flooded by excessive rain; in furrow DFU
Description: The method of applying DFU to crop plants, which has been covered by natural rain or other types of flooding is a distinctive enhanced feature of DFU treatment of crop plants to ameliorate damaging effects of field soil excessive moisture such as flooding. The most efficacious method of DFU treatment for this feature is that of an “in furrow” application into the open soil furrow at time of crop seed sowing with a spray of DFU at a dose of one to one and a half pints per acre over the seed and unto the soil of the open furrow before closure of the open furrow and application of pressure to the closed furrow for optimal soil contact with the seed. […] DFU is preferably sprayed at a dose of 1 pint per acre to 1½ pints per acre over the seed and onto the soil of the open furrow before closure of the open furrow and application of pressure to the closed furrow for optional soil contact with the seed. FIG. 5 is a photograph of a corn field completely flooded by excessive rain. FIGS. 6 and 7 show corn plants treated with DFU after the excessive water has retreated somewhat. The corn plants are seen to be growing. […] FIG. 9 is a photograph of a corn field which has not been treated with DFU, but after flooding, has been almost completely killed because of the water. FIG. 10 is a close-up photo of corn that has been killed because of flooding. […]

[5] = system: field corn cultivar DKC 66-96; test: Field corn yield, nitrogen fertilizer use efficiency (Table 4)
Description: A total of 180 lb of nitrogen fertilizer/acre, with ½ of nitrogen applied at V4 (forth leaf) and ½ at V7 (seventh leaf) as a side dress (3 inches to the side of the plant and 3 inches below the soil surface). The field corn cultivar DKC 66-96 was planted on Feb. 11, 2013 and harvested on Jul. 12, 2013.

soybean = test: Soybean yield with DFU and Quadris fungicide (Table 3)
Description: Table 3 below illustrates the increased performance of herbicides and fungicides for crop plants by addition of DFU to the crops. Quadris™ fungicide (product of Syngenta Crop Protection, Inc.) was applied at the R1 stage of growth and gave a yield increase of 15 bushels per acre. DFU by itself increased soybean yields by 40 bushels per acre. DFU and Quadris applied together increased the yields by 52 bushels.

soybean plants = test: Soybean yield after DFU seed treatment (Table 2)
Description: As further evidence the increase in crop production as a result of DFU treatment see Table 2 below. Untreated soybean plant yields were 52.5 bushels per acre. The DFU treated soybean plants yielded 111 bushels per acre. This represents an increase in […] of 111 percent.

corn seedlings [6] = test: Sealed barrel water use test with corn seedlings (FIG. 14)
Description: It has also been discovered that crops treated with DFU require less water for growing. See the results illustrated in FIG. 14. In two barrels that were sealed at the top, a precise amount of growing medium was added with appropriate fertilizer and a precise amount of water. […] Seven corn seedlings were germinated and grown in the growing medium in each of the barrels for a period of 37 days. At 37 days the fresh weight and dry weights of corn plants were determined. The graph on the right side of […] depicts the combined weight of the water and the plants growing out of the barrels. The graph on the left depicts the average amount of water needed to grow the treated vs the untreated corn, indicating a twenty eight percent savings with the DFU-treated plants contrasted to the untreated plants. The two barrels were constantly weighed electronically.

corn plants [7] = test: Root structure of DFU-treated vs untreated corn plants (FIG. 1); conditions: treated vs untreated corn plant
Description: FIG. 1 is a photograph illustrating root structure of two corn plants, one treated (on right) with DFU, the other untreated (on left); It has been discovered that application of DFU to growing crop plants results in a large increase in the functional capacity of the crop plant root system because of selective root tissue synthesis and development of fine small feeder roots that operate to take up water and minerals from the soil environment. Treatment of crop plant tissue described herein includes exogenous treatment of the crop plants with a DFU solution at a rate of between 0.1 to 10 pints/acre over the crop growth stages or as a preferred rate of 0.5 to 1.5 pints per acre. Preferably, the concentration of the DFU which is applied at the above rates is from stock solutions of 0.001 Molar to 1.0 Molar with a preferred Molarity of 0.001 Molar to 0.05 Molar. FIG. 1 is a photograph of two plants: the plant on the left had no treatment with DFU; the plant on the right hand side was treated with DFU. […] The treated plant on the right hand side of FIG. 1 is in contrast to the thicker deeper roots of the plant on the left hand side which has fewer “root tips” for water and nutrient uptake from the soil. The DFU treated plant on the right has smaller feeder roots for water, mineral, and nutrient uptake from the roots to the shoots.

[8] = field corn, seed treat 2 oz/cwt, V4 ½ pt, V9 1 pt
[9] = soybean yield, DFU 1 pt/acre, Quadris recommended rate
[10] = soybean, seed treatment 2 oz DFU/cwt of seed

## O=CNC(=O)NC=O [DFU, diformylurea]
Field corn; V4 foliar 1 pt/acre
  Yield % increase: 21.5%
  Yield increase bu/acre vs control: 45 bu/acre
  Yield rep1: 246
  Yield rep2: 251
  Yield rep3: 256
  Yield rep4: 264
Field corn; V4 foliar 1 pt/acre with Round-Up and ammonium sulfate
  Yield Bu/acre: 254 Bu/acre
Field corn; V4 foliar ½ pt/acre
  Yield % increase: 13.9%
  Yield increase bu/acre vs control: 29 bu/acre
  Yield rep1: 227
  Yield rep2: 232
  Yield rep3: 224
  Yield rep4: 237
Field corn; V4 foliar ½ pt/acre with Round-Up and ammonium sulfate
  Yield Bu/acre: 230 Bu/acre
Corn crop
  yield of the corn crop: significantly enhances yield
Corn plant [1]; Growth Stage V1
  Internodal Volume (cc): 33.49 cc
Corn plant [1]; Growth Stage V2
  Internodal Volume (cc): 45.02 cc
Corn plant [1]; Growth Stage V3
  Internodal Volume (cc): 55.76 cc
Corn plant [1]; Growth Stage V4
  Internodal Volume (cc): 59.14 cc
Corn plant [1]; Growth Stage V5
  Internodal Volume (cc): 54.34 cc
Corn plant [1]; Growth Stage V6
  Internodal Volume (cc): 47.79 cc
Corn plant [1]; Growth Stage V7
  Internodal Volume (cc): 35.02 cc
Corn plant [1]; Growth Stage V8
  Internodal Volume (cc): 24.9 cc
Corn plant [1]; calculated total, untreated 311.71
  inter-nodal stalk volumes per plant: 355.47 cc per plant
Corn plant [1]; vs untreated corn plant
  increase of inter-nodal stalk volume over the control plant: 14%
Corn seedlings [2]
  guttation of water on plant leaves: increases guttation
Corn plant [3]
  soil moisture around the root system: Much more moist soil
Corn plants [4]
  survival of plants in flooded field: prevents drowning of the plants; also recorded: survived the flood
[5]; [8]
  Rep 1 Yield: 175.5
  Rep2 Yield: 188
  Rep3 Yield: 178.7
  Rep4 Yield: 185.1
[5]; field corn, seed treat 2 oz/cwt, V4 ½ pt, V9 1 pt, 180 lb nitrogen fertilizer/acre, control 112.6
  Average Yield bu per acre: 180.6 bu per acre
[5]; harvested yield vs untreated control
  increase in efficiency of use of the available nitrogen mineral fertilizer: 60.7%
soybean; DFU @ 1 pt/acre, Quadris @ recommended rate at R1, control 55.0
  Soybean Yield Bu/acre: 95.1 Bu/acre
soybean; [9]
  Rep 1: 92.7
  Rep 2: 95.8
  Rep 3: 89.9
  Rep 4: 102
soybean; vs control
  soybean yield increase: 40 bushels per acre
Soybean plants; soybean yield vs untreated 52.5 bushels per acre
  increase in water use efficiency: 111%
Soybean plants; [10]
  Rep 1 Yield: 109
  Rep2 Yield: 112
  Rep3 Yield: 111
  Rep4 Yield: 112
Soybean plants; soybean, seed treatment 2 oz DFU/cwt of seed, control 52.5
  Average Yield bu per acre: 111 bu per acre
Soybean plants; untreated 52.5
  soybean plant yield: 111 bushels per acre
Corn seedlings [6]; 0.0015% solution of DFU, 37 days, vs untreated
  savings in average amount of water needed to grow corn: twenty eight
Corn seedlings [6]; crop plants treated with DFU
  enhanced water use efficiency: up to 28%
Corn plants [7]
  fine small feeder root system development: significantly greater fine small feeder root system development
